From US20110201629A1, “CYCLOHEXYL AMIDE DERIVATIVES AS CRF RECEPTOR ANTAGONISTS” (priority 2010, published 2011)

How the values were obtained:
[1] = molecular target: T1, CRF-1 (UniProt P34998); assay: CRF-1 receptor antagonism, HTRF cAMP assay in CHO cells; type: cell-based, human; details: Biological data Table 2; inhibition of CRF induced cAMP response in CHO cells, EC50 concentration of CRF
T1 sequence (P34998 1-415): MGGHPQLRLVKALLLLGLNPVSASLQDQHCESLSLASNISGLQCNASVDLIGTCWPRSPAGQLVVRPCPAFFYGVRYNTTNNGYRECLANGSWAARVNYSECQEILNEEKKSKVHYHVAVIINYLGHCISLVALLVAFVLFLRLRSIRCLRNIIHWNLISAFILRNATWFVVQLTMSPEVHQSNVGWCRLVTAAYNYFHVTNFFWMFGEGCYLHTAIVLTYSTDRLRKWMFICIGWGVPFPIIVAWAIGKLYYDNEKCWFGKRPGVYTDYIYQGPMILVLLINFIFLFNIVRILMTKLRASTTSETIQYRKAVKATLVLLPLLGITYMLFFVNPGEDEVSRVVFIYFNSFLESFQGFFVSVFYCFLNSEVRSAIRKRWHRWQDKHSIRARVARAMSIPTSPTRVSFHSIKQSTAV
Experimental: (§1) The CRF-1 and CRF-2 receptor antagonistic activity of the agents of the invention has been determined in vitro in the following assay:
(§2) Chinese hamster ovary (CHO) cells expressing either the human or rat recombinant CRF-1 or human CRF-2α (Chen et al, Proc Natl Acad Sci USA 90, 8967-8971, 1993; Liaw et al, Endocrinology 137, 72-77, 1996) are propagated in Dulbecco's modified Eagle medium supplemented with 10% foetal calf serum, non-essential amino acids, 100 U/ml penicillin, 100 mg/l streptomycin and 1 g/l geneticin. CHO cells expressing the rat CRF-2β receptor (Wu et al, Endocrinology 148, 1675-1687, 2007) are propagated in HAM's-F12 Glutamax supplemented with 10% foetal calf serum, 100 IU/ml penicillin, 100 mg/l streptomycin, 600 μg/ml hygromycin, 10 μg/ml blasticidin and induced with 1 μg/ml of tetracyclin for 24 hours prior to experimentation. For cyclic AMP determinations the Homogeneous Time-Resolved Fluoresce (HTRF) cAMP dynamic 2 kit (Cisbio International, France) was used as per manufacturers' instructions. CHO cells, previously cryopreserved at 3×10^6 viable cells per ml of cell recovery media (Cat no. 12648-010, Invitrogen), were thawed, centrifuged for 7 mins at 1200 rpm and resuspended in serum free media to give a concentration of 0.5×10^6 cells per/ml. Compounds of the invention, prepared in DMSO, and subsequently diluted 50 fold in assay buffer (1× Hanks balanced salt solution, 0.2% (w/v) bovine serum albumin, 1.7 mM isobutylmethylxanthine and 10 mM Hepes, pH7.4) were then added onto the 384 well low volume black assay plate (Corning Inc, US, Cat. 3676). 2000 cells/well were then added to the assay plate further diluting the compound 2 fold and then the plate was incubated for 15 mins at room temperature. Following incubation, buffer containing a 5 times final concentration of agonist, typically r/h CRF is added to the plate and incubated for 30 min at room temperature. Finally, d2 dye labeled cAMP and cryptate labeled anti-cAMP antibody, both made in lysis buffer, are added to the plate followed by a settling period of 1 hour at room temperature. During the settling period cAMP produced by the cells competes with the d2 labelled cAMP for the anti-cAMP cryptate. The plate is read on the Pherastar (BMG, Germany). Increasing levels of endogenous cAMP produced by cells can be followed by a decrease of FRET fluorescent signal and vice versa. Values represented by a change in arbitrary fluorescence units are converted into cAMP concentrations by use of a standard curve, the reagents for which are supplied with the kit. Antagonist dose response curves (1 nM-31.6 μM) are constructed and tested in the presence of an EC50 concentration of CRF relevant to the receptor (hCRF-1=3 nM, hCRF-2α=2 nM, rCRF-1=1 nM and rCRF-2β=0.1 nM). IC50 values of antagonists are calculated by fitting the percent inhibition of CRF induced cAMP response by increasing concentrations of the antagonists. The fit is performed using the nonlinear logistic function of the Activitybase software package v 5.4.5.27 (IDBS, UK).

[2] = molecular target: T2, CRF-2 (UniProt Q13324); assay: CRF-2 receptor antagonism, HTRF cAMP assay in CHO cells; type: cell-based, human; details: Biological data Table 2; inhibition of CRF induced cAMP response in CHO cells, EC50 concentration of CRF
T2 sequence (Q13324 1-411): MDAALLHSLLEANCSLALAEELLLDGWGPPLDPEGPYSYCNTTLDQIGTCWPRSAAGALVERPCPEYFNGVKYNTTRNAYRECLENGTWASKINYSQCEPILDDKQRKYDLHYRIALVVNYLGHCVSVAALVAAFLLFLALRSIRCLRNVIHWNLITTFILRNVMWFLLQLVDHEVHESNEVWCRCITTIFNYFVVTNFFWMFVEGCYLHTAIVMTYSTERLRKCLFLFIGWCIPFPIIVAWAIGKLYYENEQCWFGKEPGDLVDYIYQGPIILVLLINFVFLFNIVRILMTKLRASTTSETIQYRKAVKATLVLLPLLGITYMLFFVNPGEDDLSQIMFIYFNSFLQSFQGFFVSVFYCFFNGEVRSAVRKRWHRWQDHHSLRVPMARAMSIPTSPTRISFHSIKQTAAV
Experimental: as §1, §2

Row | Structure (SMILES) | IC50 [1] [nM] | IC50 [2] [nM]
1 | Cc1cc2c(cc1C)C(C)(F)C(=O)N2C[C@H]1CC[C@H](NC(=O)c2cc(Cl)cnc2C)CC1 (single isomer, unassigned; enantiomer 1) [Example 2.54, Enantiomer 1 of Trans-5-Chloro-N-[4-(3-fluoro-3,5,6-trimethyl-2-oxo-2,3-dihydro-indol-1-ylmethyl)-cyclohexyl]-2-methyl-nicotinamide] | 59 | 4760
2 | Cc1cc2c(cc1C)C(C)(F)C(=O)N2C[C@H]1CC[C@H](NC(=O)c2cc(Cl)cnc2C)CC1 (single isomer, unassigned; enantiomer 2) [Example 2.55, Enantiomer 2 of Trans-5-Chloro-N-[4-(3-fluoro-3,5,6-trimethyl-2-oxo-2,3-dihydro-indol-1-ylmethyl)-cyclohexyl]-2-methyl-nicotinamide] | 60 | 4530
3 | Cc1ncc(Cl)cc1C(=O)N[C@H]1CC[C@H](CN2C(=O)C(C)(C)c3ccccc32)CC1 [Example 1.3, Trans-5-chloro-N-[4-(3,3-dimethyl-2-oxo-2,3-dihydro-indol-1-ylmethyl)-cyclohexyl]-2-methyl-icotinamide] | 48 | 3800
4 | Cc1ncc(Cl)cc1C(=O)N[C@H]1CC[C@H](CN2C(=O)C3(CC3)c3cc(F)ccc32)CC1 [Example 2.6, Trans-5-chloro-N-[-4-((5′-fluoro-2′-oxospiro[cyclopropane-1,3′-indoline]-1′-yl)methyl)cyclohexyl]-2-methyl nicotinamide] | 12 | 811
5 | Cc1ncc(Cl)cc1C(=O)N[C@H]1CC[C@H](CN2C(=O)C(C)(C)c3cccc(Cl)c32)CC1 [Example 2.15, Trans-5-Chloro-N-[4-(7-chloro-3,3-dimethyl-2-oxo-2,3-dihydro-indol-1-ylmethyl)-cyclohexyl]-2-methyl-nicotinamide] | 17 | 936
6 | COc1cccc2c1N(C[C@H]1CC[C@H](NC(=O)c3cc(C(F)(F)F)ccc3Cl)CC1)C(=O)C2(C)C [Example 2.18, Trans-2-Chloro-N-[4-(7-methoxy-3,3-dimethyl-2-oxo-2,3-dihydro-indol-1-ylmethyl)-cyclohexyl]-5-trifluoromethyl-benzamide] | 50 | 1680
7 | Cc1ncc(Cl)cc1C(=O)N[C@H]1CC[C@H](CN2C(=O)[C@@](C)(F)c3ccccc32)CC1 [Example 2.20, Trans-5-Chloro-N-[4-((S)-3-fluoro-3-methyl-2-oxo-2,3-dihydro-indol-1-ylmethyl)-cyclohexyl]-2-methyl-nicotinamide] | 62 | 4590
8 | Cc1cccc2c1N(C[C@H]1CC[C@H](NC(=O)c3cc(C(F)(F)F)ccc3Cl)CC1)C(=O)C2(C)C [Example 2.23, Trans-2-Chloro-5-trifluoromethyl-N-[4-(3,3,7-trimethyl-2-oxo-2,3-dihydro-indol-1-ylmethyl)-cyclohexyl]-benzamide] | 57 | 2140
9 | Cc1ncc(Cl)cc1C(=O)N[C@H]1CC[C@H](CN2C(=O)C(F)(F)c3ccc(Cl)cc32)CC1 [Example 2.26, Trans-5-Chloro-N-[4-(6-chloro-3,3-difluoro-2-oxo-2,3-dihydro-indol-1-ylmethyl)-cyclohexyl]-2-methyl-nicotinamide] | 157 | 3120
10 | Cc1cccc2c1C(C)(C)C(=O)N2C[C@H]1CC[C@H](NC(=O)c2cc(Cl)cnc2C)CC1 [Example 2.27, Trans-5-Chloro-2-methyl-N-[4-(3,3,4-trimethyl-2-oxo-2,3-dihydro-indol-1-ylmethyl)-cyclohexyl]-nicotinamide] | 157 | 4810
11 | COc1ccc2c(c1)N(C[C@H]1CC[C@H](NC(=O)c3cc(Cl)cnc3C)CC1)C(=O)C2(C)C [Example 2.28, Trans-5-Chloro-N-[4-(6-methoxy-3,3-dimethyl-2-oxo-2,3-dihydro-indol-1-ylmethyl)-cyclohexyl]-2-methyl-nicotinamide] | 38 | 3050
12 | Cc1ncc(Cl)cc1C(=O)N[C@H]1CC[C@H](CN2C(=O)C(C)(C)c3ccc(Cl)cc32)CC1 [Example 2.29, Trans-5-Chloro-N-[4-(6-chloro-3,3-dimethyl-2-oxo-2,3-dihydro-indol-1-ylmethyl)-cyclohexyl]-2-methyl-nicotinamide] | 14 | 4620
13 | CCn1c(=O)n(C[C@H]2CC[C@H](NC(=O)c3cc(Cl)cnc3C)CC2)c2ccccc21 [Example 2.46, Trans-5-Chloro-N-[4-(3-ethyl-2-oxo-2,3-dihydro-benzoimidazol-1-ylmethyl)-cyclohexyl]-2-methyl-nicotinamide] | 44 | 256
14 | Cc1ncc(Cl)cc1C(=O)N[C@H]1CC[C@H](Cn2c(=O)n(CC(C)C)c3ccccc32)CC1 [Example 2.47, Trans-5-Chloro-N-[4-(3-isobutyl-2-oxo-2,3-dihydro-benzoimidazol-1-ylmethyl)-cyclohexyl]-2-methyl-nicotinamide] | 18 | 296
15 | Cc1ncc(Cl)cc1C(=O)N[C@H]1CC[C@H](Cn2c(=O)n(C)c3ccccc32)CC1 [Example 2.50, Trans-5-Chloro-2-methyl-N-[4-(3-methyl-2-oxo-2,3-dihydro-benzoimidazol-1-ylmethyl)-cyclohexyl]-nicotinamide] | 86 | 3560
16 | O=C(N[C@H]1CC[C@H](CN2C(=O)Cc3ccc(F)cc32)CC1)c1cc(C(F)(F)F)ccc1Cl [Example 3.2, Trans-2-Chloro-N-[4-(6-fluoro-2-oxo-2,3-dihydro-indol-1-ylmethyl)-cyclohexyl]-5-trifluoromethyl-bcnzamide] | 47 | 3870
17 | CCn1c(=O)n(C[C@H]2CC[C@H](NC(=O)c3cc(C(F)(F)F)ccc3Cl)CC2)c2ccccc21 [Example 3.4, Trans-2-Chloro-N-[4-(3-ethyl-2-oxo-2,3-dihydro-bcnzoimidazol-1-ylmethyl)-cyclohexyl]-5-trifluoromethyl-benzamide] | 18 | 1950
